Values of other authors in patent US20260174880A1, “ELECTROPHILIC REACTIVE LINKERS FOR LABELING OF POLYPEPTIDES AND METHODS OF USE THEREOF” (The Brigham and Women's Hospital, Inc., priority 2023, published 2026).
Read-outs that look alike come from different tables or passages of the source.

Tests used:
AKT1 = AKT1 (Homo sapiens, UniProt P31749); conditions: the 24th table, the 25th table
PDK1 [1] = target: T1, PDK1 (Homo sapiens, UniProt O15530); conditions: for T…: the 35th table c7; for …G: the 35th table c8
T1 sequence (O15530 1-556): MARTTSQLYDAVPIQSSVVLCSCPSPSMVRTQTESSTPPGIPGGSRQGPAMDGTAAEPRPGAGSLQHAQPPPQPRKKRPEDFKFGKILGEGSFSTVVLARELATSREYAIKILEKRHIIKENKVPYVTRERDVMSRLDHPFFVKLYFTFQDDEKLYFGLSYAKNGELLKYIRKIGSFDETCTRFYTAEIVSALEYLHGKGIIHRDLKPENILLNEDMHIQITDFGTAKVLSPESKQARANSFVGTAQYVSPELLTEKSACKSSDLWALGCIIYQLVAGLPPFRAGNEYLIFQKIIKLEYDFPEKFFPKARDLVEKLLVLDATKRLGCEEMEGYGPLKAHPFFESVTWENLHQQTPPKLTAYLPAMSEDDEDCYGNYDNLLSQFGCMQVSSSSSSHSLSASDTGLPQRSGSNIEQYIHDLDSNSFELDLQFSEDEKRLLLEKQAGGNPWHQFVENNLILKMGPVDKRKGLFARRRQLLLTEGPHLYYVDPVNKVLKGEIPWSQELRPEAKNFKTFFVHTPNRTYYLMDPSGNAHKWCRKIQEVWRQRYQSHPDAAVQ

PDK1 [2] = target: T1, PDK1; conditions: the 35th table; read-out: AC…
Recombinant PKC = target: T2, Recombinant PKC (Homo sapiens, UniProt Q05513); conditions: for % … 62.5 μM (cell…): at 62.5 μM
T2 sequence (Q05513 1-592): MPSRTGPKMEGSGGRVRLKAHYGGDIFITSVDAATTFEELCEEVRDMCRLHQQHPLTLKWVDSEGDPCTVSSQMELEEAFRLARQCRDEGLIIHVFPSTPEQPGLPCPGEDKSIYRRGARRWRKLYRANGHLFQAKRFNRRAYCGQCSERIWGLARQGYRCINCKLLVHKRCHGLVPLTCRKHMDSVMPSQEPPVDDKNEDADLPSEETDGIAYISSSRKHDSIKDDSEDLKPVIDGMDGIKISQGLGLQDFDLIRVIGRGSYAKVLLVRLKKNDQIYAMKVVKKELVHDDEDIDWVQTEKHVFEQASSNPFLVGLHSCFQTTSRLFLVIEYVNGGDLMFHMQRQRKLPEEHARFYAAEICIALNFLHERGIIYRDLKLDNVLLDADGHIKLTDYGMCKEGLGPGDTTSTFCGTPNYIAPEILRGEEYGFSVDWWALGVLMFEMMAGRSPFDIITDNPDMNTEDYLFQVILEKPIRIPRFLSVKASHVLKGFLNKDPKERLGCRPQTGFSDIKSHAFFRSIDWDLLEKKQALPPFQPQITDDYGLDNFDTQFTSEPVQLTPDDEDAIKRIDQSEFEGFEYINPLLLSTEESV

NF- B Pathway = conditions: at 5 μM
MEK1 = MEK1 (Homo sapiens, UniProt Q02750)
MEK2 = MEK2 (Homo sapiens, UniProt P36507)
[3] = test system: breast carcinoma, prostate carcinoma, colon carcinoma and pancreatic carcinoma xenografts; conditions: in vivo
Akt = conditions: the 26th table
p38α MAPK = p38α MAPK (Homo sapiens, UniProt Q16539)
MERS-COV = conditions: in vitro
[4] = test system: NF-κB dependent transcription
[5] = test system: Molt-4 (T cell acute lymphoblastic leukemia) xenografts; conditions: SCID mice
Aurora A = target: T3, Aurora A (Homo sapiens, UniProt O14965); conditions: the 30th table
T3 sequence (O14965 1-403): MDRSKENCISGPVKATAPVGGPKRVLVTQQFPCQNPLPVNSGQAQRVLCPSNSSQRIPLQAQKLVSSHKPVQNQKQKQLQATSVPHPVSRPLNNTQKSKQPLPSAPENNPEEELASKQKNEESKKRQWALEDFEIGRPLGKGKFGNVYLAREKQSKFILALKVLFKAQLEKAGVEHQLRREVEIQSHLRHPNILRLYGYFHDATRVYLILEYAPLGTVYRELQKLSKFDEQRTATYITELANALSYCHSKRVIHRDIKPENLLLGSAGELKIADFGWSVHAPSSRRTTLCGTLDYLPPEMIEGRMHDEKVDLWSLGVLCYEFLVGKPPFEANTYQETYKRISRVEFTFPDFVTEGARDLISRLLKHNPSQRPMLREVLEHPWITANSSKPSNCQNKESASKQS

[6] = not given; remark: listed apart in the source
other kinases = conditions: at 1000 nM EAI045
PDK1 [7] = target: T1, PDK1

Chain of AKT1 (P31749 whole entry): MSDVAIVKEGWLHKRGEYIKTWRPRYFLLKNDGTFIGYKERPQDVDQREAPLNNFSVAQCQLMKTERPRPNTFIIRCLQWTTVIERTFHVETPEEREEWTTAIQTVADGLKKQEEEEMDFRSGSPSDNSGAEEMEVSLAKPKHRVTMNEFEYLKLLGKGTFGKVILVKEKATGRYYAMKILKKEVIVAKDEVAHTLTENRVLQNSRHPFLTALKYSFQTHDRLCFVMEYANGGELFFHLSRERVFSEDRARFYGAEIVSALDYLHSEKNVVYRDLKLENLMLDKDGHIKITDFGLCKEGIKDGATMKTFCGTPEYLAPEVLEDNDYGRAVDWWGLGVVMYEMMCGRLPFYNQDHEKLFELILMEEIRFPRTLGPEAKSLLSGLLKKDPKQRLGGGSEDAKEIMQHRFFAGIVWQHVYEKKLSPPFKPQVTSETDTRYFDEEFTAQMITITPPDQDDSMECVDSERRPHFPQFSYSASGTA
Chain of MEK2 (P36507 whole entry): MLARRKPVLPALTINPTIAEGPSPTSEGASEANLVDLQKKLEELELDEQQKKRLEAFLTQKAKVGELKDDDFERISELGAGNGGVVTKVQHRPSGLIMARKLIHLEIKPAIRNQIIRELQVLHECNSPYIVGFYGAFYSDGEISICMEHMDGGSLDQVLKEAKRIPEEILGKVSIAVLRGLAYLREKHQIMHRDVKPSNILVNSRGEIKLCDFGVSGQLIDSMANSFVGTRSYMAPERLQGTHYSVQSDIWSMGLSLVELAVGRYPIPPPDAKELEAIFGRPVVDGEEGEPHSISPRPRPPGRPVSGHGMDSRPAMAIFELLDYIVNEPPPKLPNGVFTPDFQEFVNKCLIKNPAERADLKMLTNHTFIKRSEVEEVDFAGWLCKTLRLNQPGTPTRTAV
Chain of MEK1 (Q02750 whole entry): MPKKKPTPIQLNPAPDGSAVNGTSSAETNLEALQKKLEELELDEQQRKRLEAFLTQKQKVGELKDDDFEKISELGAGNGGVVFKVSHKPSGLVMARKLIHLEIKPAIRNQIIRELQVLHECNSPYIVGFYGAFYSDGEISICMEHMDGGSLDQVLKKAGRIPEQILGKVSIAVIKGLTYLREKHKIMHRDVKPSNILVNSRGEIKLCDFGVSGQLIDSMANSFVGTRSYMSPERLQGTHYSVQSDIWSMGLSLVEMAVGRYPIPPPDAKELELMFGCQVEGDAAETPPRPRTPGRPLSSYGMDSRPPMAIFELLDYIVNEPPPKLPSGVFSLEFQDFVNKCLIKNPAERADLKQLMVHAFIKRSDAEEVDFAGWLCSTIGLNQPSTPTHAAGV
Chain of p38α MAPK (Q16539 whole entry): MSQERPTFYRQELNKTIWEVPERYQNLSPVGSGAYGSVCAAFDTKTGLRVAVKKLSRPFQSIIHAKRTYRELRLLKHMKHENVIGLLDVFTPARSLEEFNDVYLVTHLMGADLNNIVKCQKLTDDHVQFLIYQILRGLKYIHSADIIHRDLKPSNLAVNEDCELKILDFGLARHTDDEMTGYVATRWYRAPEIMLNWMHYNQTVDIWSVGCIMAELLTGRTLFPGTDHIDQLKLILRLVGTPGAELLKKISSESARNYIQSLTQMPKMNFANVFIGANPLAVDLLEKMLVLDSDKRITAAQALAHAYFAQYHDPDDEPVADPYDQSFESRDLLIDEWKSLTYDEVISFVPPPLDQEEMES

Molecule: CC(=O)NCc1ccc(-n2c(-c3cccnc3N)nc3cccnc32)cc1 [8d]
- IC50 (AKT1): 0.81 µM

Molecule: O=C(O)/C=C(/CCc1ccc2ccccc2c1)c1ccccc1 [12Z]
- T… (PDK1 [1]): 1.96 kcal/mol
- …G (PDK1 [1]): -6.87 kcal/mol
- …H… (PDK1 [1]; the 35th table c9): 58.3%
- EC50 (PDK1 [2]): 8 µM

Molecule: CC(C)(C)C1=NN(c2ccc(Br)cc2)C(c2ccc(O)cc2)C1 (centres unmarked) [1c]
- % … 62.5 μM (cell…) (Recombinant PKC): 93.2%

Molecule: CC(C)(C)C1=NN(c2ccc(C(F)(F)F)cc2)C(c2ccc(O)cc2)C1 (centres unmarked) [1d]
- % … 62.5 μM (cell…) (Recombinant PKC): 94.2%

Molecule: Cc1ccc(N2N=C(C(C)(C)C)CC2c2ccc(O)cc2)c(C)c1 (centres unmarked) [1p]
- % … 62.5 μM (cell…) (Recombinant PKC): 59.9%
- % … 5 μM (NF…, U… cells) (NF- B Pathway): 41.5%

Molecule: Cn1cnc2c(F)c(Nc3ccc(Br)cc3F)c(C(=O)NOCCO)cc21 [Binimetinib]
- pIC50 (MEK1): 7.9
- pIC50 (MEK2): 7.9

Molecule: O=C(O)/C=C(/CCc1ccc(Cl)cc1Cl)c1ccccc1 [8Z]
- …H… (PDK1 [1]; the 35th table c6): -2.08 kcal/mol
- T… (PDK1 [1]): 4.93 kcal/mol
- …G (PDK1 [1]): -7.07 kcal/mol
- …H… (PDK1 [1]; the 35th table c9): 29.5%
- EC50 (PDK1 [2]): 4.7 µM

Molecule: O=C1NC(=O)[C@@H](c2cn3c4c(cccc24)CCC3)[C@@H]1c1c[nH]c2ccccc12 [tivantinib]
- growth of carcinoma xenografts [3]: inhibition of growth

Molecule: Nc1ncccc1-c1nc2cc(-c3cccnc3)cnc2n1-c1ccc(CNC(=O)c2cccc(F)c2)cc1 [12g]
- IC50 (Akt): 0.4 µM

Molecule: Cc1cccc(N2N=C(C(C)(C)C)CC2c2ccc(O)cc2)c1 (centres unmarked) [1k]
- % … 62.5 μM (cell…) (Recombinant PKC): 91.7%
- % … 5 μM (NF…, U… cells) (NF- B Pathway): 71.7%

Molecule: Nc1ncccc1-c1nc2cccnc2n1-c1cccc(CNC(=O)c2ccccc2)c1 [8g]
- IC50 (AKT1): 13 µM

Molecule: CC(C)(C)C1=NN(c2cccc(Cl)c2)C(c2ccc(O)cc2)C1 (centres unmarked) [1h]
- IC50 (Recombinant PKC): 3.2 µM
- % … 62.5 μM (cell…) (Recombinant PKC): 96.8%
- % … 5 μM (NF…, U… cells) (NF- B Pathway): 64.6%

Molecule: Nc1ncccc1-c1nc2cc(C3CCCC3)cnc2n1-c1ccc(CNC(=O)c2ccccc2)cc1 [12d]
- IC50 (Akt): > 100 µM

Molecule: Skepinone-B
- residence times (p38α MAPK): 150 s

Molecule: CC(C)(C)C1=NN(c2ccc(Cl)cc2Cl)C(c2ccc(O)cc2)C1 (centres unmarked) [1n]
- % … 62.5 μM (cell…) (Recombinant PKC): 71.0%

Molecule: CC(=O)Nc1cccc(-n2c(=O)n(C3CC3)c(=O)c3c(Nc4ccc(I)cc4F)n(C)c(=O)c(C)c32)c1 [Trametinib]
- Absorption/distribution of an oral dose of trametinib tablet: 72%

Molecule: CO[C@H]1C[C@@H]2CC[C@@H](C)[C@@](O)(O2)C(=O)C(=O)N2CCCC[C@H]2C(=O)O[C@H]([C@H](C)C[C@@H]2CC[C@@H](O)[C@H](OC)C2)CC(=O)[C@H](C)/C=C(\C)[C@@H](O)[C@@H](OC)C(=O)[C@H](C)C[C@H](C)/C=C/C=C/C=C/1C [Sirolimus]
- MERS-COV infection of Huh7 cells (MERS-COV): inhibits MERS-COV infection

Molecule: Cc1ccc2nc(NCCN)c3ncc(C)n3c2c1 [BMS-345541]
- NF-κB dependent transcription in mice [4]: block NF-κB dependent transcription

Molecule: O=C(O)/C=C(/CCc1ccc(Cl)c(Cl)c1)c1ccccc1 [7Z]
- …H… (PDK1 [1]; the 35th table c6): -3.71 kcal/mol
- T… (PDK1 [1]): 2.80 kcal/mol
- …G (PDK1 [1]): -6.56 kcal/mol
- …H… (PDK1 [1]; the 35th table c9): 56.6%
- EC50 (PDK1 [2]): 2.8 µM

Molecule: NCc1ccc(-n2c(-c3cccnc3)nc3cccnc32)cc1 [5b]
- IC50 (AKT1): 8.8 µM

Molecule: Nc1ccc(/C=C/C(=O)NCc2cc3cc(-c4ccc(C(=O)N5CCC(F)(F)CC5)cc4)cc(-c4ccc(F)cc4)c3o2)cn1 [KPT-9274]
- Molt-4 xenografts [5]: induces shrinkage

Molecule: CC(C)(C)C1=NN(c2cccc(C(F)(F)F)c2)C(c2ccc(O)cc2)C1 (centres unmarked) [1j]
- % … 62.5 μM (cell…) (Recombinant PKC): 96.1%

Molecule: COc1ccccc1Cn1c(-c2cccnc2N)nc2cccnc21 [3c]
- IC50 (AKT1): 38 µM

Molecule: CC(C)(C)c1ccc(-n2c(-c3ccncc3)nc3cccnc32)cc1 [3a]
- IC50 (AKT1): > 300 µM

Molecule: Cc1ccc(N2N=C(C(C)(C)C)CC2c2ccc(O)cc2)cc1 (centres unmarked) [1e]
- % … 5 μM (NF…, U… cells) (NF- B Pathway): 62.9%

Molecule: O=C(O)c1cc(-c2cccc(C(F)(F)F)c2)nc2ccccc12 [compound 34]
- IC50 (Aurora A): 26.5 µM
- Ki (Aurora A; read-out: Calculated K…): 507 µM
- Sol (pH 6.5) [6]: 190 μg/mL
- IC50 (C26): 0.00033 µM

Molecule: CC(C)(C)C1=NN(c2ccc(Cl)cc2)C(c2ccc(O)cc2)C1 (centres unmarked) [1a]
- % … 5 μM (NF…, U… cells) (NF- B Pathway): 75.1%

Molecule: O=C(Nc1nccs1)C(c1cc(F)ccc1O)N1Cc2ccccc2C1=O (centres unmarked) [EAI045]
- inhibition of any other kinases in screening panels (other kinases): ≤ 20%

Molecule: O=S(=O)(Nc1nc2ccc(Cl)cc2s1)c1cc2ccccc2s1 [RS2]
- Kd (PDK1 [7]): 9 µM

Molecule: Nc1ncccc1-c1nc2cccnc2n1-c1ccc(CNCc2ccccc2)cc1 [8h]
- IC50 (AKT1): 0.26 µM

Molecule: CC(C)(C)C1=NN(c2ccc(C(=O)O)cc2)C(c2ccc(O)cc2)C1 (centres unmarked) [1g]
- % … 5 μM (NF…, U… cells) (NF- B Pathway): 40.7%
